Data as given in patent publication US20250006331A1, “QUANTITATIVE SYSTEMS PHARMACOLOGY METHODS FOR IDENTIFYING THERAPEUTICS FOR DISEASE STATES” (UNIVERSITY OF PITTSBURGH-OF THE COMMONWEALTH SYSTEM OF …, priority 2021, published 2025).
Entries after “also recorded” stand apart in the source; their conditions may differ.

Key:
[1] = tested on: LAMPS models; assay: LAMPS hepatocellular steatosis (LipidTOX labeling); type: cell-based, human; conditions: for Effect on steatosis: LAMPS NAFLD/MAFLD model, summary statement; for Hepatocellular steatosis / lipid accumulation (LipidTOX intensity): NAFLD disease media, day 10, vs vehicle control, 10 μM TGZ, Vorinostat 1.7 or 5 μM, AS601245 1 or 3 μM, pioglitazone + vorinostat combination
Experimental: (§1) LAMPS model assembly and maintenance. […] The experimental setup workflow is described in the Supplement.
Steatosis measurements. Steatosis measurements were performed using HCS LipidTOX Deep Red Neutral Lipid Stain (ThermoFisher) after completion of the experimental time course (Day 10) in LAMPS models as previously described (Lee-Montiel, George et al. 2017) and are outlined in detail in the Supplemental Methods section.

[2] = tested on: LAMPS models; assay: LAMPS model functionality (albumin and blood urea nitrogen secretion); type: cell-based, human; conditions: 10-day time course, vs vehicle control, 10 μM OCA, 30 μM PGZ; for Albumin curves / Blood urea nitrogen curves: NAFLD disease media, 10 μM TGZ, Vorinostat 1.7 or 5 μM, AS601245 1 or 3 μM, pioglitazone + vorinostat combination
Excerpt: (§2) LAMPS cell sources and cell culture. A single lot of selected cryopreserved primary human hepatocytes (lot #Hu1960) with >90% viability and re-plating efficiency post-thaw were purchased from ThermoFisher. A single lot of selected cryopreserved primary human liver sinusoidal endothelial cells (LSEC; lot #: HL160019) were purchased from LifeNet Health (formerly Samsara Sciences; Virginia Beach, VA.). The human monoblast cell line, THP-1, used to generate Kupffer cells, was purchased from ATCC (Rockville, MD). LX-2 human stellate cells were acquired from Sigma Millipore (Billerica, MA). The LX-2 cell is an immortalized human hepatic stellate cell that constitutively expresses key receptors regulating hepatic fibrosis, and proliferates in response to PDGF, a prominent mitogen contributing to liver fibrosis (Bonner 2004, Xu, Hui et al. 2005).
Primary human hepatocytes were thawed following the manufacturer's recommendations using Cryopreserved Hepatocyte Recovery Medium (CHRM; ThermoFisher) and were initially cultured in hepatocyte plating media (HPM) containing Williams E medium (11.5 mM glucose) supplemented with 5% fetal bovine serum, […] penicillin-streptomycin and 2 mM L-glutamine. For perfusion in LAMPS models, cells were maintained in normal fasting (NF), early metabolic syndrome (EMS), or late metabolic syndrome (LMS) media. The description of components of these media types is detailed in the Metabolic Syndrome Media section below. LSECs were thawed and expanded in endothelial cell basal medium-2 (EBM-2) supplemented with the endothelial growth medium-2 (EGM-2) supplement pack (Lonza; Alpharetta, GA; #CC-4176). THP-1 cells were cultured in suspension in RPMI-1640 medium (ThermoFisher) supplemented with 10% fetal bovine serum (FBS; ThermoFisher), 100 μg/mL penicillin streptomycin (ThermoFisher), and 2 mM L-glutamine (ThermoFisher). THP-1 cells were differentiated into mature macrophages by treatment with 200 ng/mL phorbol myristate acetate (Sigma Aldrich) for 48 h. Differentiated THP-1 monocytes release human tumor necrosis factor alpha (TNF-α) and interleukin-6 (IL-6) in response to LPS treatment, a condition reported to induce the immune mediated liver toxic response in in vitro models (Jang, Choi et al. 2006, Kostadinova, Boess et al. 2013). LX-2 cells were cultured in Dulbecco's Modified Eagle Medium (DMEM; ThermoFisher) supplemented with 2% FBS and 100 μg/mL penicillin streptomycin.
Metabolic syndrome media. We developed medias that were designed to create disease progression from Normal Fasting (NF) to early metabolic syndrome (EMS or NAFLD) and late metabolic syndrome (LMS or T2D) over a two-week period in the LAMPS platform (Mohammed 2021). For the studies described here, we used both NF and EMS media formulations. […] We then adjusted these components to reflect the pathophysiological conditions as described below (Alford, Bloodm et al. 1977, Kuhl 1977, Kim, Kim et al. 2000, Chitturi, Abeygunasekera et al. 2002, de Almeida, Cortez-Pinto et al. 2002, Valencia, Marin et al. 2002, Edgerton, Ramnanan et al. 2009, Winnick, An et al. 2009).
Early Metabolic Syndrome (EMS) Media: Early metabolic syndrome (EMS) medium was derived from the NF media formulation with the following modifications: 11.5 mM glucose, 10 nM insulin, […] glucagon, 200 μM sodium oleate and 100 μM palmitic acid (Sigma).
as §1

[3] = tested on: LX-2 human stellate cells; assay: LAMPS stellate cell activation (α-smooth muscle actin staining); type: cell-based; conditions: for Effect on stellate cell activation: LAMPS NAFLD/MAFLD model, summary statement; for Stellate cell activation (α-SMA intensity): LAMPS, 10 μM OCA, 30 μM PGZ
Excerpt: as §2, §1
Stellate cell activation. Staining for LX-2 cell expression of α-smooth muscle actin (α-SMA) was performed after completion of the experimental time course (Day 10) in LAMPS models as previously described (Vernetti, Senutovitch et al. 2016, Li, George et al. 2018) and are outlined in detail in the Supplemental Methods section.

[4] = tested on: LAMPS models; assay: LAMPS cytotoxicity (lactate dehydrogenase secretion); conditions: for Lactate dehydrogenase curves: 10-day time course, vs vehicle control, 10 μM OCA, 30 μM PGZ, 10 μM TGZ
Experimental: LAMPS model assembly and maintenance. LAMPS studies were carried out as previously described (Vernetti, Senutovitch et al. 2016, Lee-Montiel, George et al. 2017, Miedel, Gavlock et al. 2019, Mohammed 2021) with modification to include the use of human primary liver sinusoidal endothelial cells (LSECs). A single chamber commercial microfluidic device (HAR-V single channel device, SCC-001, Nortis, Inc. Seattle, WA) was used for LAMPS studies. For all steps involving injection of media and/or cell suspensions into LAMPS devices, 100-150 μl per device was used to ensure complete filling of fluidic pathways, chamber and bubble traps. The percentages of hepatocytes, THP-1, LSEC, and LX-2 cells are consistent with the scaling used in our previously published models (Vernetti, Senutovitch et al. 2016, Lee-Montiel, George et al. 2017, Miedel, Gavlock et al. 2019, Mohammed 2021). For the studies described here, LAMPS models were set up and maintained for 10 days under flow.
Secretome measurements. Efflux media from LAMPS devices was collected on days 2,4,6,8, and 10 to measure albumin, blood urea nitrogen, and lactate dehydrogenase. […] The CytoTox 96 for lactate dehydrogenase (LDH) and the urea nitrogen test were purchased from Promega (Madison, WI) and Stanbio Laboratory (Boerne, TX), respectively. […] All efflux measurements were carried out according to the manufacturer's protocol and obtained as described previously (Vernetti, Senutovitch et al. 2016, Lee-Montiel, George et al. 2017, Li, George et al. 2018, Miedel, Gavlock et al. 2019).
LAMPS models were maintained for 10 days in MAFLD disease media containing either the indicated concentration of drug or DMSO vehicle control. We determined drug concentrations to test in LAMPS models guided by the CMap database and by cytotoxicity testing in primary hepatocytes (Table S8). […] We examined a panel of metrics to monitor disease-specific phenotypes including model functionality (albumin and blood urea nitrogen production) and cytotoxicity (lactate dehydrogenase secretion), hepatocellular steatosis (LipidTOX Lipid Stain from ThermoFisher Scientific labeling), stellate cell activation (α-smooth muscle actin staining), and the production of a panel of pro-inflammatory cytokines and fibrotic markers (Pro-collagen 1A1 and TIMP-1) (Mohammed et. al, 2021).

[5] = tested on: Pro-collagen 1A1 and TIMP-1; assay: LAMPS secretion of pro-fibrotic markers (ELISA); type: cell-based, human; conditions: for Effect on secreted pro-fibrotic markers / fibrosis: LAMPS NAFLD/MAFLD model, summary statement; for Decrease in secretion of the pro-fibrotic marker Pro-Col 1a1: 10 μM TGZ vs vehicle, decrease is not significant; for Decrease in secretion of the pro-fibrotic marker Pro-collagen 1a1: 30 μM PGZ vs vehicle, decrease not statistically significant
Excerpt: as §1

[6] = observational trial of adult males [Vega, G. L., et al. 2008]; cited from earlier work
[7] = tested on: TNF-α, IL-6, IL-8, IL-1α and MCP-1; assay: LAMPS production of pro-inflammatory cytokines; type: cell-based, human; conditions: for Inflammatory cytokine production: LAMPS
Excerpt: as §1

[8] = NAFLD disease media, day 10, vs vehicle control, 10 μM TGZ, Vorinostat 1.7 or 5 μM, pioglitazone + vorinostat combination
[9] = LAMPS, NAFLD disease media, 10 days, vs vehicle, 10 μM OCA, 30 μM PGZ, 10 μM TGZ, Vorinostat 1.7 or 5 μM, pioglitazone + vorinostat combination
[10] = LAMPS, NAFLD disease media, 10 days, 10 μM OCA, 30 μM PGZ
[11] = LAMPS, EMS media, 10 days, 10 μM OCA
[12] = EMS media, vorinostat 1.7 or 5 μM, pioglitazone 30 μM + vorinostat 1.7 or 5 μM
[13] = EMS media, day 10, vs vehicle, vorinostat 1.7 or 5 μM, pioglitazone 30 μM + vorinostat 1.7 or 5 μM
[14] = NAFLD disease media, day 10, vs vehicle control, Vorinostat 1.7 or 5 μM, AS601245 1 or 3 μM, pioglitazone + vorinostat combination
[15] = LAMPS, EMS media, 10 days, vs vehicle, 10 μM OCA, 30 μM PGZ, vorinostat 1.7 or 5 μM, pioglitazone 30 μM + vorinostat 1.7 or 5 μM

| Compound | Effect on steatosis [1] | Hepatocellular steatosis / lipid accumulation (LipidTOX intensity) ([1]; LAMPS, 10 μM OCA, 30 μM PGZ) | Albumin curves [2] | Blood urea nitrogen curves [2] | Effect on stellate cell activation [3] | Stellate cell activation (α-SMA intensity) [3, 8] | Lactate dehydrogenase curves ([4]; NAFLD disease media) | Effect on secreted pro-fibrotic markers / fibrosis [5] | Secreted levels / production of TIMP-1 [5, 9] | Decrease in secretion of the pro-fibrotic marker Pro-Col 1a1 [5, 10] | Decrease in secretion of the pro-fibrotic marker Pro-collagen 1a1 [5, 11] | Inflammatory cytokine production [7, 14] | other results |
| --- | --- | --- | --- | --- | --- | --- | --- | --- | --- | --- | --- | --- | --- |
| Cc1c(C)c2c(c(C)c1O)CCC(C)(COc1ccc(CC3SC(=O)NC3=O)cc1)O2 (stereo not shown) [TGZ, troglitazone] | reduced | significant decrease | no significant differences | no significant differences | reduced | significant decrease | no significant differences | reduced steatosis but not fibrosis markers; also recorded: no significant effect | no significant change | ~20% | – | – | – |
| CCc1ccc(CCOc2ccc(CC3SC(=O)NC3=O)cc2)nc1 (stereo not shown) [PGZ, pioglitazone] | – | – | – | – | – | – | no significant differences | no significant effect | – | ~20% | ~20% | – | – |
| C[C@]12COC(=O)C[C@@H]1CC[C@@H]1[C@@H]2CC[C@@]2(C)[C@H]1CC[C@]2(C)O [oxandrolone] | – | – | – | – | – | – | – | – | – | – | – | – | Hepatic ketogenesis [6]: promoted hepatic ketogenesis |
| CC[C@H]1[C@@H](O)[C@@H]2[C@H](CC[C@]3(C)[C@@H]([C@H](C)CCC(=O)O)CC[C@@H]23)[C@@]2(C)CC[C@@H](O)C[C@@H]12 [OCA, obeticholic acid] | – | – | – | – | – | – | no significant differences | no significant effect | – | ~20% | ~20% | – | – |
| O=C(CCCCCCC(=O)Nc1ccccc1)NO [Vorinostat, suberoylanilide hydroxamic acid] | without an impact; also recorded: without significant amelioration; also recorded: without an appreciable effect | no effect | no significant differences | no significant differences | robustly reduced | significant decrease | – | robustly mitigated; also recorded: robustly reduced; also recorded: significant inhibition | significant decrease | – | – | significant decrease | Steatosis / lipid accumulation (LipidTOX intensity) ([1]; LAMPS, EMS media, day 10, vs vehicle, 10 μM OCA, 30 μM PGZ, vorinostat 1.7 or 5 μM, pioglitazone 30 μM + vorinostat 1.7 or 5 μM): no significant effect; Albumin secretion profiles [2, 12]: no significant differences; Blood urea nitrogen secretion profiles [2, 12]: no significant differences; Effect on inflammatory markers / inflammation ([7]; LAMPS NAFLD/MAFLD model, summary statement): robustly mitigated; also recorded: robustly reduced; also recorded: significant inhibition; Inflammatory cytokine production [7, 13]: significant decrease; Stellate cell activation (α-SMA intensity) [3, 13]: significant decrease; LDH secretion ([4]; EMS media, days 8 and 10, 5 μM vorinostat vs vehicle control): significant decrease; LDH secretion ([4]; NAFLD disease media, days 8 and 10, 5 μM Vorinostat vs vehicle control): significant decrease; Secreted levels / production of TIMP-1 [5, 15]: significant decrease; Secreted levels / production of the pro-fibrotic marker Pro-Col 1a1 [5, 15]: significant decrease; Production of the pro-fibrotic marker pro-collagen 1a1 ([5]; LAMPS, NAFLD disease media, day 10, vs vehicle control, Vorinostat 1.7 or 5 μM, pioglitazone + vorinostat combination): significant decrease |
| N#CC(c1ccnc(NCCc2cccnc2)n1)c1nc2ccccc2s1 (stereo not shown) [AS601245] | – | no effect | no significant differences | no significant differences | – | – | – | – | – | – | – | dose-dependent increase | – |
